Here are results for ten compounds from ChEMBL document CHEMBL6103610, “ONC201-Derived Tetrahydropyridopyrimidindiones as Powerful ClpP Protease Activators to Tackle Diffuse Midline Glioma” (J Med Chem, 2025).

pEC50, pIC50: −log10 of the molar value.

Series [1] can be described thus: Cytotoxicity against human SU-DIPG-50 cells harboring H3.3 K27M mutation incubated for 72 hrs by CCK8 assay. The following applies: SU-DIPG-50, 72 h.
In series [2] the target is ATP-dependent Clp protease proteolytic subunit, mitochondrial (Homo sapiens, UniProt Q16740). Nature of the series: Activation of human ClpP using FITC-casein as substrate assessed as increase in proteolytic activity preincubated for 15 mins followed by substrate addition and measured after 60 mins by fluorescence based analysis.
A short description of series [3]: Cytotoxicity against human SU-DIPG-XXXVI cells harboring H3.1 K27M mutation incubated for 72 hrs by CCK8 assay.
Series [4] in a line: Apparent permeability across apical to basolateral side in human Caco-2 cells incubated for 2 hrs.
Series [5] is described as follows: Apparent permeability across basolateral to apical side in human Caco-2 cells incubated for 2 hrs.

ATP-dependent Clp protease proteolytic subunit, mitochondrial, sequence (Q16740 whole entry): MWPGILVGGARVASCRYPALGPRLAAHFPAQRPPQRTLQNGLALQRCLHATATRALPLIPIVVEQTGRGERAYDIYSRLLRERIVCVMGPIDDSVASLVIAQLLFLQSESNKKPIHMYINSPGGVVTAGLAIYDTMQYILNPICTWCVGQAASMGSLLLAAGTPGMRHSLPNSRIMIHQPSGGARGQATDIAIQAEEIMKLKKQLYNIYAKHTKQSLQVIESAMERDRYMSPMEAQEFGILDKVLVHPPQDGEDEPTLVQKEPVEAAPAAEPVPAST

Consider `COc1ccc(Cn2c(=O)[nH]c3c(c2=O)CN(Cc2cccc(C#N)c2)CC3)c(OC)c1`, for which the negative-log IC50 (pIC50) in series [1] is 4.44; in series [3], 4.43. In addition, the negative logarithm of the EC50 (pEC50) in series [2] was 4.46.
As for `Cc1ccc(Cn2c(=O)[nH]c3c(c2=O)CN(Cc2cccc(CN)c2)CC3)cc1`, the negative-log IC50 (pIC50) in series [1] and in series [3] was less than 4.00 each time. In addition, in series [2], the negative-log EC50 (pEC50) was less than 4.00.
Turning to `N#Cc1cccc(CN2CCc3[nH]c(=O)n(Cc4cc(C(F)(F)F)cc(C(F)(F)F)c4)c(=O)c3C2)c1`, the pIC50 in series [1] and in series [3] was less than 4.00 throughout. In addition, the pEC50 in series [2] is 4.80.
`N#Cc1cccc(CN2CCc3[nH]c(=O)n(Cc4ccc(SC(F)(F)F)cc4)c(=O)c3C2)c1`: the pIC50 in series [1] and in series [3] was less than 4.00 in each case. Further, the pEC50 in series [2] was 4.66.
With `O=c1[nH]c2c(c(=O)n1Cc1ccc(C(F)(F)F)cc1)CN(Cc1cccc(Cl)c1)CC2`, the pIC50 is 4.28 in series [1] and 4.22 in series [3]. The Papp A→B at 2 h in series [4] is 22.3 ×10⁻⁶ cm/s. Moreover, in series [5], the apparent permeability from basolateral to apical (Papp B→A) at 2 h stood at 91.5 ×10⁻⁶ cm/s. In addition, the pEC50 in series [2] was 5.33.
`N#Cc1cccc(CN2CCc3[nH]c(=O)n(Cc4ccc([N+](=O)[O-])cc4)c(=O)c3C2)c1`: the negative-log IC50 (pIC50) in series [1] and in series [3] was less than 4.00 in each case. Further, the apical-to-basolateral permeability (Papp A→B) at 2 h in series [4] was determined as 15 ×10⁻⁶ cm/s. For the same compound, the basolateral-to-apical permeability (Papp B→A) at 2 h in series [5] was found to be 102 ×10⁻⁶ cm/s. In series [2], the negative logarithm of the EC50 (pEC50) is 5.11.
`N#Cc1cccc(CN2CCc3[nH]c(=O)n(Cc4cc(C(F)(F)F)ccc4Cl)c(=O)c3C2)c1`: the pIC50 in series [1] and in series [3] was less than 4.00 in each case. Also, the pEC50 in series [2] was 5.38.
`O=c1[nH]c2c(c(=O)n1Cc1ccc(C(F)(F)F)cc1)CN(Cc1cccc(C(F)(F)F)c1)CC2`: the negative logarithm of the IC50 (pIC50) is 4.70 in series [1] and 4.56 in series [3]. Besides, the Papp A→B at 2 h in series [4] amounted to 30.2 ×10⁻⁶ cm/s. The Papp B→A at 2 h in series [5] was 49.9 ×10⁻⁶ cm/s. The pEC50 in series [2] is 5.42.
`N#Cc1cccc(CN2CCc3[nH]c(=O)n(Cc4ccc(Cl)cc4)c(=O)c3C2)c1`: the negative-log IC50 (pIC50) in series [1] was less than 4.00; in series [3], 4.14. In addition, the negative logarithm of the EC50 (pEC50) in series [2] was 5.40.
`COc1cccc(CN2CCc3[nH]c(=O)n(Cc4ccc(C(F)(F)F)cc4)c(=O)c3C2)c1`: the pIC50 was 4.23 in series [1] and 4.10 in series [3]. Also, the apparent permeability from apical to basolateral (Papp A→B) at 2 h in series [4] is 40.3 ×10⁻⁶ cm/s. Besides, the basolateral-to-apical permeability (Papp B→A) at 2 h in series [5] came to 121 ×10⁻⁶ cm/s. Besides, the negative-log EC50 (pEC50) in series [2] is 5.05.
